# “Also recorded” adds a separate entry of the source.
# Columns and labels:
# [1] = tested on: endogenous sialyltransferase activity of human polymorphonuclear leukocytes; assay: Sialyltransferase assay (flow cytometry), intact PMNs as endogenous ST source; format: cell-based
# From the text: (§1) For the study of PMN ST activity, a previously described ST assay was adapted in which CMP-5-NANA served as the labeled sialyl residue donor and neuraminidase-treated RBCs as the sialyl residue acceptor (7). Based on preliminary studies, a standard reaction mixture contained a sialyl residue acceptor, either RBCs or polymorphonuclear leukocytes, CMP-5-NANA and a ST source. Purified α2,6-ST at a final concentration of 0.5 nU/ml, or polymorphonuclear leukocytes as an endogenous source of ST activity were used in a final volume of 100 μl cell incubation buffer (CIB) containing PBS plus 5 mg/ml BSA, pH 6.8. Sialyl residue acceptor SRBCs and polymorphonuclear leukocytes were desialylated with 25 mU/ml NANase/1-2×10^8/cells in 1 ml of CIB for 1 h at 37° C., washed once in CIB and used at 4×10^6 cells or at 8×10^6 cells respectively in a volume of 40 μl. When used as an endogenous source of ST activity, human polymorphonuclear leukocytes were adjusted to a stock concentration of 1×10^8 PMN/ml, lysed by freeze/thawing, centrifuged, and the protein concentration of the supernatant determined (Bio-Rad Laboratories, Hercules, Calif.). Intact human polymorphonuclear leukocytes at 8×10^6/0.1 ml assay volume were also used both as a source of ST activity as well as an acceptor of sialyl residues.
# (§2) After gentle mixing, all tubes were incubated for 2 h at 37° C. in a humidified atmosphere containing 5% CO2. The cells were washed, pelleted and resuspended in CIB and analyzed fluorocytometrically on a FACScan II (Becton-Dickinson, Mountain View, Calif.). Based on forward and right angle light scatter properties, an electronic gate was placed around the RBCs or polymorphonuclear leukocytes which were excited at […] and emission measured at 530 nm. At least 10,000 events were recorded per condition. Data was analyzed with a CellQuest analysis program.
# For each experiment, controls included omission of each of the components of the assay mixture, i.e., ST source, CMP-5 NANA or sialyl residue acceptor) as well as boiled, exogenous α2,6 ST. When indicated, 2-DN (0.04 mM, final concentration), an inhibitor of sialidase activity (8) was introduced to prevent the possible removal of the transferred sialyl residues. ST activity was measured after subtraction of background fluorescence, i.e., complete assay mixture minus either the exogenous ST or, for endogenous ST, in the presence and absence of the ST inhibitor, CMP (0.3 mM final concentration) and was expressed as % of maximal activity. For experiments in which it was estimated the endogenous ST activity, a standard curve was constructed using serial 2-fold dilutions of purified α2-6 ST enzyme from which tissue ST activity was interpolated, and expressed the ST activity as nU per μg protein.
# [2] = tested on: polymorphonuclear leukocytes; assay: Preliminary tests of CMP toxicity to PMNs; format: cell-based, human; settings: 0.3 mM CMP
# [3] = tested on: polymorphonuclear leukocytes in the peritoneal fluid; assay: In vivo IL-8 recruitment of PMNs to the peritoneal fluid; settings: mice; CMP intravenously 30 min before and 1 hr after IL-8 (150 ng/ml) intraperitoneally; counted at 2 hrs
# Method: Mice are pre-treated intravenously with different doses of CMP 30 minutes before giving IL-8 (150 ng/ml) intraperitoneally to recruit polymorphonuclear leukocytes. This is followed with another dose of CMP one hr after the IL-8. Polymorphonuclear leukocytes in the peritoneal fluid of these mice are counted at 2 hrs after the IL-8, i.e., one hr after the second dose of CMP. The total polymorphonuclear leukocytes in the perioneal fluid of mice treated with CMP is compared with those given an equal volume of saline. It is contemplated that those receiving the CMP will have a lower number of polymorphonuclear leukocytes in the perioneal fluid.
# [4] = tested on: polymorphonuclear leukocytes adhering to human microvascular endothelial cells (HMVEC); assay: Adherence of resting PMNs to LPS-activated endothelial cells; format: cell-based; settings: CMP 2.5 mM for 5 minutes prior to stimulation; LPS 100 ng/ml for 4 hrs; FIG. 5
# Method: In contrast, when the human microvascular endothelial cells, HMVECs, are treated with lipopolysaccharide, LPS, (100 ng/ml for 4 hrs) to activate them, resting polymorphonuclear leukocytes adhere better to the HMVECs. […] When polymorphonuclear leukocytes are activated with the tetrapeptide FMLP (1×10^−7 M/cyt b for 5 min.) they adhere better than do resting polymorphonuclear leukocytes (FIG. 5). At this later stage of PMN-EC interaction, sialyltransferase doesn't play a role. It is contemplated that CMP appears to work by inhibiting the initial binding of non-activated polymorphonuclear leukocytes to the ECs and also works at the late stage where polymorphonuclear leukocytes that have migrated through the EC monolayer are unable to move further to the inflammatory nidus.
# [5] = tested on: human polymorphonuclear leukocytes migrating across human pulmonary artery endothelial cells (HPAEC); assay: Transendothelial migration of PMNs across HPAEC monolayers in response to IL-8; format: cell-based; settings: 0.3 mM CMP; TNF-treated HPAEC monolayers, IL-8 150 ng/ml, 2 h; p<0.03
# Method: FIG. 4 depicts inhibition of transendothelial cell migration by an ST inhibitor, cytidine monophosphate (CMP). Calcein AM-labeled human polymorphonuclear leukocytes were added to human pulmonary artery endothelial cells (HPAEC) pre-treated for 4 hrs with rTNF (50 U/ml). TEM was measured in response to IL-8 (150 ng/ml) over 2 hr as previously described (6) in the absence and presence of 0.3 mM CMP. 4 chambers/variable were studied. This figure is representative of 3 independent experiments.
# The ability of human polymorphonuclear leukocytes to migrate across human pulmonary artery endothelial cell (HPAEC) monolayers in response to a chemotactic stimulus (IL-8) was measured as previously described (6). Only EC monolayers retaining […] of a ^14C-bovine serum albumen tracer were studied (i.e. no loss of barrier function). After treatment of HPAECs for 4 h with 25 U/ml TNFr, calcein AM (Molecular Probes, Eugene, Oreg.)-labeled human polymorphonuclear leukocytes (5×10^5 cells/well) were introduced into the upper compartments of the assay chambers, incubated for 2 h at 37° C., after which time each lower compartment was sampled and fluorometrically assayed. A standard curve was established for each experiment from which polymorphonuclear leukocyte numbers could be interpolated from fluorescence units and PMN TEM was expressed as % migration.
# α2,6 sialyltransferase = α2,6 sialyltransferase (Photobacterium damselae, UniProt O66375); assay: Sialyltransferase assay (flow cytometry), exogenous ST with PMNs as sialyl residue acceptors; format: cell-based, bacterial; settings: 0.3 mM CMP
# α2,6 sialyltransferase, sequence (O66375 entry or part of it): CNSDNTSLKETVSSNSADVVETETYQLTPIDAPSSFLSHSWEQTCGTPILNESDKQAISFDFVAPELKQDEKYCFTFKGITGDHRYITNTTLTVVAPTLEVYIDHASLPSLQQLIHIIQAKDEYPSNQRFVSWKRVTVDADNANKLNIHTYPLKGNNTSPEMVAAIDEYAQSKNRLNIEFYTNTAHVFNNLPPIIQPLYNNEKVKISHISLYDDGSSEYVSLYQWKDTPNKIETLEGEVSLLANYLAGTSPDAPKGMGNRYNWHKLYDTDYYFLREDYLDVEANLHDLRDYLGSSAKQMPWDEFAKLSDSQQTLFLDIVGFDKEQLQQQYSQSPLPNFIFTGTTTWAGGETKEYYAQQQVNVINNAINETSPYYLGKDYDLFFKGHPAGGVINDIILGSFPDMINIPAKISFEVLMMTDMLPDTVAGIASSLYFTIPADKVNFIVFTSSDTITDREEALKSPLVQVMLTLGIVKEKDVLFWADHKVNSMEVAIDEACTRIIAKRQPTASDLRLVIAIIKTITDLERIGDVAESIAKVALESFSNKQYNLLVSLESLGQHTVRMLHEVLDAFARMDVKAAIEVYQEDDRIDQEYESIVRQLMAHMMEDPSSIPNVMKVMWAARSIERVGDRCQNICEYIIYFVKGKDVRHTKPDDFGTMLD
# From the text: as §1, with “Sialyl residue acceptor SRBCs and polymorphonuclear leukocytes were desialylated with 25 mU/ml NANase/1-2×10^8/cells in 1 ml of CIB for 1 h at 37° C., washed once in CIB and used at 4×10^6 cells or at 8×10^6 cells respectively in a volume of 40 μl.” left out, “Intact human polymorphonuclear leukocytes at 8×10^6/0.1 ml assay volume were also used both as a source of ST activity as well as an acceptor of sialyl residues.” left out
# as §2, with “Data was analyzed with a CellQuest analysis program.” left out
Compound,"MFI (ST activity) in presence of sialidase inhibitor 2-DN ([1]; FIG. 3B: intact untreated PMNs, 2-DN 0.04 mM final concentration, MFI 364 without 2-DN)",toxicity to the polymorphonuclear leukocytes [2],number of polymorphonuclear leukocytes in the peritoneal fluid vs saline [3],adherence of resting PMNs to LPS-treated HMVECs [4],inhibition of TEM (transendothelial migration) [5] [%],"MFI (mean fluorescence intensity) with CMP (α2,6 sialyltransferase; FIG. 2A: neuraminidase-pretreated PMNs + exogenous sialyltransferase, MFI 406 without CMP)","MFI (mean fluorescence intensity) with CMP (α2,6 sialyltransferase; FIG. 2B: PMNs unexposed to neuraminidase + exogenous sialyltransferase, MFI 310 without CMP)","inhibition of ST activity in vitro ([1]; 0.3 mM CMP, preliminary tests)","MFI (mean fluorescence intensity) with CMP ([1]; FIG. 2C: neuraminidase-pretreated PMNs + intact untreated PMNs as endogenous ST source, 0.3 mM CMP, MFI 295 without CMP)","MFI (mean fluorescence intensity) with CMP ([1]; FIG. 2D: intact untreated PMNs added to PMNs not exposed to neuraminidase, 0.3 mM CMP, MFI 266 without CMP)","mean fluorescence intensity (MFI) after CMP treatment ([1]; FIG. 3A: PMNs (8×10^6), 10 μM CMP-NANA, 0.3 mM CMP, MFI 364 without CMP)"
"CC(=O)N[C@H]1[C@H]([C@H](O)[C@H](O)CO)OC(C(=O)O)=C[C@@H]1O [2-DN, 2,3 deoxy-N-acetyl neuraminic acid]",317,–,–,–,–,–,–,–,–,–,–
"Nc1ccn([C@@H]2O[C@H](COP(=O)(O)O)[C@@H](O)[C@H]2O)c(=O)n1 [CMP, cytidine 5′-monophosphate]",–,not toxic,lower number,inhibits the initial binding; also recorded: decreased adherence,> 40,165,167,fully inhibited,141,131,222
